The values below come from BindingDB's records for doi:10.1124/jpet.104.069260 (University of Texas At Austin, 2004).

The target in this assay is Sodium-dependent serotonin transporter (Homo sapiens, UniProt P31645).

Bounds are passed on as bounds.

Chain of Sodium-dependent serotonin transporter (P31645 whole entry): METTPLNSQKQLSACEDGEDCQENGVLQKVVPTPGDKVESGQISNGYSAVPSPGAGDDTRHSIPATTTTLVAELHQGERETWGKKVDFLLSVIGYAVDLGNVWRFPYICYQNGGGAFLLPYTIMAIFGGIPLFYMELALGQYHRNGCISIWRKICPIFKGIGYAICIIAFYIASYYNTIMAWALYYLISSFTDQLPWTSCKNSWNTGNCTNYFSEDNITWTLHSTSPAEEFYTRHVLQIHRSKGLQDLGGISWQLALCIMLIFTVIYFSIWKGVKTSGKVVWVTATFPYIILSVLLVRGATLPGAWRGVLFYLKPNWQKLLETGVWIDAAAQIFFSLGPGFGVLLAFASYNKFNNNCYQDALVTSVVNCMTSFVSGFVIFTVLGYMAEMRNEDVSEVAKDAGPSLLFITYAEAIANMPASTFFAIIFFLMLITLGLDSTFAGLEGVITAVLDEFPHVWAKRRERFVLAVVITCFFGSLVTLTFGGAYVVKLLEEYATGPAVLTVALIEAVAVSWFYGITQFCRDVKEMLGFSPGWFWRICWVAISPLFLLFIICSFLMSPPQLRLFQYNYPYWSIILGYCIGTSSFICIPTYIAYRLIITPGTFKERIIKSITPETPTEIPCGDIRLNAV

`CC(N)Cc1ccc2c(c1)OCO2` (configuration not stated): the inhibition constant (Ki) is greater than 10 µM. As for `CN[C@@H](C)Cc1ccc2c(c1)OCO2` [DL-(3,4-Methylenedioxy)methamphetamine], the Ki is greater than 10 µM.
